Test: xn = mol fraction of the nth substance listed
Conditions: Liquid, Vibrating tube method, x1 = 1

CCO [ethanol] + Cc1ccccc1
mass density [kg/m3]
Conditions | 100 kPa | 5000 kPa | 10000 kPa | 15000 kPa | 20000 kPa | 25000 kPa | 30000 kPa | 35000 kPa | 40000 kPa | 45000 kPa
283.15 K | 798 | 802 | 805.9 | 809.5 | 813 | 816.4 | 819.7 | 822.8 | 825.9 | 828.8
293.15 K | 789.5 | 793.7 | 797.8 | 801.6 | 805.3 | 808.9 | 812.3 | 815.6 | 818.7 | 821.8
303.15 K | 780.9 | 785.3 | 789.6 | 793.7 | 797.5 | 801.3 | 804.8 | 808.2 | 811.5 | 814.7
313.15 K | 772.1 | 776.8 | 781.3 | 785.6 | 789.6 | 793.5 | 797.2 | 800.8 | 804.2 | 807.6
323.15 K | 763.3 | 768.3 | 773 | 777.6 | 781.8 | 785.9 | 789.7 | 793.5 | 797.1 | 800.5
333.15 K | 754 | 759.3 | 764.3 | 769.1 | 773.6 | 777.8 | 781.9 | 785.8 | 789.5 | 793.1
343.15 K | 744.5 | 750.1 | 755.5 | 760.5 | 765.3 | 769.8 | 774 | 778.1 | 782 | 785.7
353.15 K | – | 740.6 | 746.4 | 751.7 | 756.7 | 761.5 | 766 | 770.2 | 774.3 | 778.2

— the NIST ThermoML archive (doi:10.1016/j.fluid.2005.05.023)
